According to ChEMBL document CHEMBL1201862, “PubChem BioAssay data set” (2004):
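Test compounds were applied to cells in 96-well plates for 48 hours at 5 doses. The concentration for 50% growth inhibition is given as GI50.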 Activity calls are given as the source filed them. No stated cut-off is given here; in the data, active = GI50 up to about 1.1 µM and inactive = higher.

Legend:
Experiment in all cases: DTP human tumour cell line panel, 48 h
UACC-62 = system: UACC-62
KM12 = system: KM12
K562 = system: K562
SNB-75 = system: SNB-75
SK-MEL-5 = system: SK-MEL-5
A549 = system: A549
NCI-H23 = system: NCI-H23
CAKI-1 = system: CAKI-1
UACC-257 = system: UACC-257
SN12C = system: SN12C
EKVX = system: EKVX
ACHN = system: ACHN
SK-MEL-2 = system: SK-MEL-2
TK-10 = system: TK-10
CCRF-CEM = system: CCRF-CEM

Measured: GI50

COc1cc(C=C2C(=O)NC(=O)NC2=O)cc(OC)c1OC
inactive: UACC-62 > 100 µM | KM12 > 100 µM | K562 > 100 µM | SNB-75 80.2 µM | SK-MEL-5 > 100 µM | A549 > 100 µM | NCI-H23 > 100 µM | CAKI-1 > 100 µM | UACC-257 > 100 µM | SN12C > 100 µM | EKVX > 100 µM | ACHN > 100 µM | SK-MEL-2 > 100 µM | TK-10 > 100 µM | CCRF-CEM > 100 µM

CNC(=O)CN(CC(N)=O)C(N)=O
inactive: UACC-62 > 100 µM | KM12 > 100 µM | K562 > 100 µM | SNB-75 77.3 µM | SK-MEL-5 > 100 µM | A549 > 100 µM | NCI-H23 > 100 µM | CAKI-1 > 100 µM | EKVX > 100 µM | ACHN > 100 µM | SK-MEL-2 > 100 µM | TK-10 > 100 µM | CCRF-CEM > 100 µM

C[C@H](O)CCC(=O)c1ccoc1
inactive: UACC-62 > 100 µM | KM12 > 100 µM | K562 > 100 µM | SNB-75 > 34.5 µM | SK-MEL-5 > 100 µM | A549 > 100 µM | NCI-H23 > 100 µM | CAKI-1 > 100 µM | UACC-257 > 100 µM | SN12C > 100 µM | EKVX > 100 µM | ACHN > 100 µM | SK-MEL-2 > 100 µM | TK-10 > 100 µM | CCRF-CEM > 100 µM

NS(=O)(=O)c1ccccc1C(=O)N/N=C(\c1nc2ccc([N+](=O)[O-])cc2[nH]c1=O)C(O)c1ccc([N+](=O)[O-])cc1 (configuration not stated)
inactive: UACC-62 52.2 µM | KM12 66.2 µM | K562 56.5 µM | SNB-75 > 100 µM | SK-MEL-5 44.4 µM | A549 > 100 µM | NCI-H23 > 100 µM | CAKI-1 > 100 µM | UACC-257 > 100 µM | SN12C > 100 µM | EKVX > 100 µM | ACHN 41.6 µM | SK-MEL-2 > 100 µM | TK-10 > 100 µM | CCRF-CEM 71.1 µM

CC(=O)OCCOCBr
inactive: UACC-62 > 100 µM | KM12 > 100 µM | K562 > 100 µM | SNB-75 > 100 µM | SK-MEL-5 > 100 µM | A549 > 100 µM | CAKI-1 > 100 µM | UACC-257 > 100 µM | SN12C > 100 µM | EKVX > 100 µM | ACHN > 100 µM | SK-MEL-2 > 100 µM | TK-10 > 100 µM | CCRF-CEM > 100 µM

Cc1ccc(/C=N/NS(=O)(=O)c2ccccc2)cc1C
inactive: UACC-62 98.9 µM | KM12 > 100 µM | K562 > 100 µM | SNB-75 > 100 µM | SK-MEL-5 > 100 µM | A549 > 100 µM | NCI-H23 > 100 µM | CAKI-1 68.7 µM | UACC-257 > 100 µM | SN12C > 100 µM | EKVX > 100 µM | ACHN > 100 µM | SK-MEL-2 > 100 µM | TK-10 > 100 µM | CCRF-CEM > 100 µM

O=C1C2C=CC(n3[nH]c(=O)n(Cc4ccccc4)c3=O)CC2C(=O)N1c1ccc(Br)cc1 (configuration not stated)
inactive: UACC-62 > 100 µM | KM12 > 100 µM | K562 > 100 µM | SNB-75 47.1 µM | SK-MEL-5 > 100 µM | A549 > 100 µM | NCI-H23 > 100 µM | CAKI-1 > 100 µM | UACC-257 > 100 µM | SN12C > 100 µM | EKVX > 100 µM | ACHN > 100 µM | SK-MEL-2 > 100 µM | TK-10 > 100 µM | CCRF-CEM > 100 µM

C=C(CN(C)C)C(=O)c1ccccc1Cl
inactive: UACC-62 18.3 µM | KM12 > 47.8 µM | K562 13.1 µM | SNB-75 41.8 µM | SK-MEL-5 24.2 µM | A549 > 100 µM | NCI-H23 22.9 µM | CAKI-1 17.1 µM | UACC-257 18.8 µM | SN12C 20.9 µM | EKVX > 52.1 µM | ACHN 17.6 µM | SK-MEL-2 18.1 µM | TK-10 21.7 µM | CCRF-CEM 5.7 µM

O=C(Nc1ccccc1-c1nn(C(=S)Nc2ccccc2)c(=S)n(C(=S)Nc2ccccc2)c1=O)C(F)(F)F
inactive: UACC-62 17.3 µM | KM12 17.3 µM | K562 18.8 µM | SNB-75 31.1 µM | SK-MEL-5 11.7 µM | A549 24.4 µM | NCI-H23 15.5 µM | CAKI-1 31.4 µM | UACC-257 14.2 µM | SN12C 26.4 µM | EKVX 27.6 µM | ACHN 24.4 µM | SK-MEL-2 22.2 µM | TK-10 35.3 µM | CCRF-CEM 13.3 µM

O=c1[nH]c(=O)n(C2OC(CO)C(O)C2O)cc1OCC(F)(F)F (configuration not stated)
inactive: UACC-62 > 100 µM | KM12 > 100 µM | K562 > 100 µM | SNB-75 > 100 µM | SK-MEL-5 > 100 µM | A549 > 100 µM | NCI-H23 > 100 µM | CAKI-1 > 100 µM | UACC-257 > 100 µM | SN12C > 100 µM | EKVX > 100 µM | ACHN > 100 µM | SK-MEL-2 > 100 µM | TK-10 > 100 µM | CCRF-CEM > 100 µM
